Where “and” joins values, the source holds several entries; their conditions need not be identical. Equal values may be shown once. HELM strings list units from the 5' end as sugar, base in round brackets, then linkage (d deoxyribose, r ribose, m 2'-O-methyl, p phosphodiester). Strings are as the collection lists them, not checked against the first reports. ss, as = sense and antisense strand; [lna] = locked nucleic acid (LNA); [una] = unlocked nucleic acid; [hna] = hexitol nucleic acid; [s4r] = 4'-thioribose; [fl2r] = 2'-fluoro
conditions: siRNA
Also: test system not given here.

Compared with “RNA1{r(U)p.[fl2r](U)p.r(A)p.r(C)p.r(C)p.r(C)p.r(C)p.r(G)p.r(A)p.r(U)p.r(U)p.[fl2r](C)p.r(A)p.r(G)p.r(C)p.r(C)p.r(U)p.r(C)p.r(U)p.r(T)p.r(T)}|RNA2{r(A)p.r(G)p.r(A)p.r(G)p.r(G)p.r(C)p.[fl2r](U)p.r(G)p.r(A)p.r(A)p.r(U)p.r(C)p.r(G)p.r(G)p.r(G)p.r(G)p.[fl2r](U)p.r(A)p.r(A)p.r(T)p.r(T)}$$$RNA1{StrandType:ss}|RNA2{StrandType:as}$”, “RNA1{[fl2r](U)p.r(A)p.r(A)p.r(C)p.r(C)p.r(C)p.[fl2r](C)p.r(A)p.r(A)p.r(G)p.r(A)p.r(A)p.[fl2r](C)p.r(G)p.r(G)p.r(G)p.r(C)p.r(U)p.r(U)p.r(T)p.r(T)}|RNA2{r(A)p.r(A)p.r(G)p.r(C)p.r(C)p.r(C)p.[fl2r](G)p.r(U)p.r(U)p.r(C)p.r(U)p.[fl2r](U)p.r(G)p.r(G)p.r(G)p.r(G)p.r(U)p.[fl2r](U)p.r(A)p.r(T)p.r(T)}$$$RNA1{StrandType:ss}|RNA2{StrandType:as}$” is lower in target mRNA knockdown: 82% for the first, 72% for the second.

Going from “RNA1{r(G)p.r(A)p.r(C)p.r(G)p.[hna](U)p.r(A)p.r(A)p.[hna](A)p.r(C)p.r(G)p.[hna](G)p.r(C)p.r(C)p.[hna](A)p.r(C)p.r(A)p.r(A)p.r(G)p.r(U)p.r(U)p.d(T)}|RNA2{r(A)p.r(C)p.r(U)p.r(U)p.r(G)p.r(U)p.r(G)p.r(G)p.r(C)p.r(C)p.r(G)p.r(U)p.r(U)p.r(U)p.r(A)p.r(C)p.r(G)p.r(U)p.[lna](C)p.[lna](G)p.r(C)}$$$RNA1{StrandType:ss}|RNA2{StrandType:as}$” to “RNA1{r(C)p.r(C)p.r(C)p.r(U)p.r(C)p.r(C)p.r(C)p.r(C)p.[fl2r](U)p.r(G)p.r(U)p.r(C)p.r(C)p.r(C)p.r(C)p.r(G)p.[fl2r](C)p.r(U)p.r(U)p.r(T)p.r(T)}|RNA2{r(A)p.r(A)p.r(G)p.r(C)p.r(G)p.r(G)p.r(G)p.r(G)p.r(A)p.[fl2r](C)p.r(A)p.r(G)p.r(G)p.r(G)p.r(G)p.r(A)p.r(G)p.r(G)p.r(G)p.r(T)p.r(T)}$$$RNA1{StrandType:ss}|RNA2{StrandType:as}$”, the target mRNA knockdown falls from 77.3% to 72%.

Compared with “RNA1{r(C)p.r(U)p.r(U)p.r(A)p.r(C)p.r(G)p.r(C)p.r(U)p.r(G)p.r(A)p.r(G)p.r(U)p.r(A)p.r(C)p.r(U)p.r(U)p.r(C)p.r(G)p.r(A)p.d(T)p.d(T)}|RNA2{[lna](T)p.r(C)p.r(G)p.r(A)p.r(A)p.r(G)p.r(U)p.r(A)p.r(C)p.r(U)p.r(C)p.r(A)p.r(G)p.r(C)p.r(G)p.r(U)p.r(A)p.r(A)p.r(G)p.[lna](T)p.[lna](T)}$$$RNA1{StrandType:ss}|RNA2{StrandType:as}$”, “RNA1{m(A)p.r(A)p.m(G)p.r(G)p.m(A)p.r(G)p.m(A)p.r(U)p.m(C)p.r(A)p.m(A)p.r(C)p.m(A)p.r(U)p.m(U)p.r(U)p.m(U)p.r(C)p.m(A)p.r(T)p.r(T)}|RNA2{r(U)p.m(G)p.r(A)p.m(A)p.r(A)p.m(A)p.r(U)p.m(G)p.r(U)p.m(U)p.r(G)p.m(A)p.r(U)p.m(C)p.r(U)p.m(C)p.r(C)p.m(U)p.r(U)p.r(T)p.r(T)}$$$RNA1{StrandType:ss}|RNA2{StrandType:as}$” is higher in target mRNA knockdown: 55% for the first, 65% for the second.

First: RNA1{r(U)p.r(A)p.r(A)p.r(G)p.r(A)p.r(U)p.r(G)p.r(U)p.r(U)p.r(C)p.r(A)p.r(U)p.r(C)p.r(G)p.r(A)p.r(G)p.r(U)p.r(C)p.r(C)p.d(T)p.d(T)}|RNA2{r(G)p.r(G)p.r(A)p.r(C)p.r(U)p.r(C)p.r(G)p.r(A)p.r(U)p.r(G)p.r(A)p.r(A)p.r(C)p.r(A)p.r(U)p.r(C)p.r(U)p.r(U)p.r(A)p.d(T)p.d(T)}$$$RNA1{StrandType:ss}|RNA2{StrandType:as}$
Second: RNA1{r(G)p.r(U)p.r(A)p.r(U)p.r(G)p.r(A)p.r(C)p.r(C)p.r(G)p.r(A)p.r(C)p.r(U)p.r(A)p.r(C)p.r(G)p.r(C)p.r(G)p.r(U)p.r(A)p.r(T)p.r(T)}|RNA2{r(U)p.r(U)p.r(C)p.r(A)p.r(G)p.r(U)p.r(G)p.r(U)p.r(G)p.r(A)p.r(U)p.r(G)p.r(A)p.r(C)p.r(A)p.r(C)p.[una](U)p.r(U)p.r(G)p.r(T)p.r(T)}$$$RNA1{StrandType:ss}|RNA2{StrandType:as}$
The target mRNA knockdown of the first is lower: 0% for the first, 87% for the second.

First: RNA1{r(G)p.r(U)p.r(A)p.r(U)p.r(G)p.r(A)p.r(C)p.r(C)p.r(G)p.r(A)p.r(C)p.r(U)p.r(A)p.r(C)p.r(G)p.r(C)p.r(G)p.r(U)p.r(A)p.r(T)p.r(T)}|RNA2{r(U)p.r(U)p.r(C)p.r(A)p.r(G)p.[una](U)p.r(G)p.r(U)p.r(G)p.r(A)p.r(U)p.r(G)p.r(A)p.r(C)p.r(A)p.r(C)p.r(U)p.r(U)p.r(G)p.r(T)p.r(T)}$$$RNA1{StrandType:ss}|RNA2{StrandType:as}$
Second: RNA1{r(A)p.m(C)p.m(C)p.m(U)p.m(U)p.m(U)p.m(C)p.m(C)p.r(A)p.m(C)p.m(U)p.m(U)p.m(C)p.m(U)p.r(A)p.r(A)p.r(G)p.m(C)p.m(C)p.r(T)p.r(T)}|RNA2{r(G)p.r(G)p.r(C)p.r(U)p.r(U)p.r(A)p.r(G)p.r(A)p.r(A)p.r(G)p.r(U)p.r(G)p.r(G)p.r(A)p.r(A)p.r(A)p.r(G)p.r(G)p.r(U)p.r(T)p.r(T)}$$$RNA1{StrandType:ss}|RNA2{StrandType:as}$
The target mRNA knockdown of the first is higher: 78% for the first, 75% for the second.

Going from “RNA1{r(G)p.r(A)p.r(A)p.r(A)p.r(A)p.r(C)p.r(G)p.r(C)p.r(U)p.m(U)p.r(G)p.m(U)p.r(A)p.r(A)p.r(A)p.r(G)p.r(C)p.r(C)p.r(G)p.r(T)p.r(T)}|RNA2{r(C)p.r(G)p.r(G)p.r(C)p.r(U)p.r(U)p.m(U)p.r(A)p.m(C)p.r(A)p.r(A)p.r(G)p.r(C)p.r(G)p.r(U)p.r(U)p.r(U)p.r(U)p.r(C)p.r(T)p.r(T)}$$$RNA1{StrandType:ss}|RNA2{StrandType:as}$” to “RNA1{r(C)p.r(G)p.r(U)p.r(A)p.r(C)p.r(G)p.r(C)p.r(G)p.r(G)p.r(A)p.r(A)p.r(U)p.r(A)p.r(C)p.r(U)p.r(U)p.r(C)p.r(G)p.r(A)p.r(T)p.r(T)}|RNA2{[s4r](U)p.[s4r](C)p.r(G)p.r(A)p.r(A)p.r(G)p.r(U)p.r(A)p.r(U)p.r(U)p.r(C)p.r(C)p.r(G)p.r(C)p.r(G)p.r(U)p.r(A)p.r(C)p.r(G)p.r(T)p.r(T)}$$$RNA1{StrandType:ss}|RNA2{StrandType:as}$”, the target mRNA knockdown rises from 54% to 95%.

Going from “RNA1{[hna](G)p.[hna](A)p.[hna](C)p.r(G)p.r(U)p.r(A)p.r(A)p.r(A)p.r(C)p.r(G)p.r(G)p.r(C)p.r(C)p.r(A)p.r(C)p.r(A)p.r(A)p.[hna](G)p.[hna](U)p.r(U)p.d(T)}|RNA2{r(A)p.r(C)p.[lna](T)p.r(U)p.r(G)p.[lna](T)p.r(G)p.r(G)p.r(C)p.r(C)p.r(G)p.r(U)p.r(U)p.[lna](T)p.r(A)p.r(C)p.r(G)p.[lna](T)p.r(C)p.[lna](G)p.[lna](C)}$$$RNA1{StrandType:ss}|RNA2{StrandType:as}$” to “RNA1{r(A)p.r(U)p.r(G)p.r(G)p.r(G)p.r(A)p.r(G)p.r(A)p.r(A)p.r(G)p.m(U)p.r(A)p.r(G)p.r(U)p.r(C)p.r(C)p.r(C)p.r(C)p.r(C)p.r(T)p.r(T)}|RNA2{r(G)p.r(G)p.r(G)p.r(G)p.r(G)p.r(A)p.r(C)p.m(U)p.r(A)p.r(C)p.r(U)p.r(U)p.r(C)p.r(U)p.r(C)p.r(C)p.r(C)p.r(A)p.r(U)p.r(T)p.r(T)}$$$RNA1{StrandType:ss}|RNA2{StrandType:as}$”, the target mRNA knockdown rises from 5.4% to 84%.

Going from “RNA1{r(U)p.r(C)p.r(U)p.r(C)p.r(G)p.r(U)p.r(A)p.r(A)p.r(G)p.r(G)p.r(A)p.r(C)p.r(G)p.r(A)p.r(A)p.r(A)p.r(C)p.r(G)p.r(A)p.r(T)p.r(T)}|RNA2{r(U)p.r(C)p.r(G)p.r(U)p.r(U)p.r(U)p.r(C)p.r(G)p.r(U)p.r(C)p.r(C)p.r(U)p.m(U)p.r(A)p.r(C)p.r(G)p.r(A)p.r(G)p.r(A)p.r(T)p.r(T)}$$$RNA1{StrandType:ss}|RNA2{StrandType:as}$” to “RNA1{[lna](A)p.r(C)p.r(U)p.r(G)p.r(U)p.r(C)p.r(A)p.r(A)p.r(A)p.r(C)p.r(C)p.r(C)p.r(G)p.r(G)p.r(U)p.r(A)p.r(A)p.r(U)p.r(U)p.[lna](T)p.[lna](T)}|RNA2{r(A)p.r(A)p.r(U)p.r(U)p.r(A)p.r(C)p.r(C)p.r(G)p.r(G)p.r(G)p.r(U)p.r(U)p.r(U)p.r(G)p.r(A)p.r(C)p.r(A)p.r(G)p.r(U)p.[lna](T)p.[lna](T)}$$$RNA1{StrandType:ss}|RNA2{StrandType:as}$”, the target mRNA knockdown falls from 55% to 52%.

First: RNA1{r(G)p.r(C)p.r(A)p.r(A)p.r(C)p.r(U)p.r(C)p.r(A)p.r(U)p.r(G)p.r(G)p.r(U)p.r(U)p.r(C)p.r(A)p.r(U)p.r(G)p.r(C)p.r(U)p.r(T)p.r(T)}|RNA2{r(A)p.r(G)p.r(C)p.r(A)p.r(U)p.r(G)p.r(A)p.r(A)p.r(C)p.r(C)p.r(A)p.r(U)p.r(G)p.r(A)p.r(G)p.r(U)p.r(U)p.r(G)p.r(C)p.d(T)p.d(T)}$$$RNA1{StrandType:ss}|RNA2{StrandType:as}$
Second: RNA1{r(A)p.m(U)p.m(C)p.r(G)p.r(A)p.m(C)p.m(C)p.m(U)p.r(G)p.r(A)p.r(A)p.r(G)p.r(G)p.r(A)p.r(G)p.m(U)p.r(A)p.m(C)p.r(G)p.r(T)p.r(T)}|RNA2{m(C)p.r(G)p.m(U)p.r(A)p.m(C)p.m(U)p.m(C)p.m(C)p.m(U)p.m(U)p.m(C)p.r(A)p.r(G)p.r(G)p.m(U)p.m(C)p.r(G)p.r(A)p.m(U)p.r(T)p.r(T)}$$$RNA1{StrandType:ss}|RNA2{StrandType:as}$
The target mRNA knockdown of the first is higher: 40% for the first, 19% for the second.

With “RNA1{r(G)p.r(A)p.r(U)p.r(A)p.r(G)p.r(G)p.r(A)p.r(A)p.r(G)p.r(G)p.r(G)p.r(G)p.r(C)p.r(U)p.r(U)p.r(C)p.r(A)p.r(G)p.r(C)p.r(T)p.r(T)}|RNA2{r(G)p.m(C)p.m(U)p.r(G)p.r(A)p.r(A)p.r(G)p.m(C)p.m(C)p.m(C)p.m(C)p.m(U)p.m(U)p.m(C)p.m(C)p.m(U)p.r(A)p.m(U)p.m(C)p.r(T)p.r(T)}$$$RNA1{StrandType:ss}|RNA2{StrandType:as}$” the target mRNA knockdown was 12%.

In the case of “RNA1{[fl2r](A)p.[fl2r](A)p.r(C)p.r(C)p.r(C)p.[fl2r](A)p.r(C)p.r(C)p.[fl2r](A)p.r(C)p.[fl2r](A)p.r(G)p.r(C)p.[fl2r](U)p.[fl2r](A)p.r(G)p.[fl2r](A)p.[fl2r](A)p.r(C)p.[fl2r](U)p.[fl2r](U)}|RNA2{r(A)p.r(A)p.r(G)p.r(U)p.r(U)p.r(C)p.r(U)p.r(A)p.r(G)p.r(C)p.r(U)p.r(G)p.r(U)p.r(G)p.r(G)p.r(U)p.r(G)p.r(G)p.r(G)p.r(U)p.r(U)}$$$RNA1{StrandType:ss}|RNA2{StrandType:as}$”, the target mRNA knockdown was 37% and 54%.

From the OligoGym collection
